# Test results: ChEMBL document CHEMBL1155665, “Euplectin and coneuplectin, new naphthopyrones from the lichen Flavoparmelia euplecta” (J Nat Prod, 2000)
# Test system: P815
# Experiment: Antiproliferative activity against mouse P815 cells assessed as incorporation of [3H]thymidine after 18 hrs by liquid scintillation counting
# Type: functional, cell-based
smiles,measurement,value
Cc1cc(=O)c2c(O)cc3cc4c(c(O)c3c2o1)C(=O)C=C4 [EUPLECTIN],IC50,1.67 µg/mL
